The target in the assay is T1, Arf1 (Homo sapiens, UniProt P84077).
T1 construct: endogenous Arf1 in Huh7 cells, active form pulled down with GGA3 and detected with anti-Arf1 antibody
Briefly: GGA3 pull-down of active Arf1, western blot. The format is cell-based. The note with it: Huh7 cells; GBF1-dependent Arf1 activation. On the technique in general: Immunoblotting shows a protein as a band on a membrane.

The structures appear in SMILES notation.

T1 sequence (P84077 2-181): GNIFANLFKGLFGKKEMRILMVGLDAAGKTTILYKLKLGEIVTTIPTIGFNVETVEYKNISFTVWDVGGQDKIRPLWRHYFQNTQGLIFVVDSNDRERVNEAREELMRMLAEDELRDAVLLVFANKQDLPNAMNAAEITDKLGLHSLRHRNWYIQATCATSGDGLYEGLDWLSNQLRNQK

For the compound `C(=N\Nc1ncnc2sc3c(c12)CCCC3)/c1ccc2[nH]ccc2c1` [DU101], the “GGA3 pull-down of active Arf1, western blot” value was “DU101 or DU102 treatment significantly inhibited Arf1 activity”. Consider `C(=N\Nc1ncnc2sc3c(c12)CCCCCC3)/c1ccc2[nH]ccc2c1` [DU102], for which the “GGA3 pull-down of active Arf1, western blot” value is reported as “DU101 or DU102 treatment significantly inhibited Arf1 activity”.

Source of the values: publication PMC11497069, “Novel Arf1 Inhibitors Drive Cancer Stem Cell Aging and Potentiate Anti‐Tumor Immunity” (Advanced Science, 2024).
